From patent publication US10106516B2, “PDE10 inhibitors and related compositions and methods” (Omeros Corporation, priority 2010, dated 2018) come the findings set out here.

One test concerns the target T1, PDE10 (Homo sapiens, UniProt Q9Y233).
T1 construct: made in house; host or cells: Sf9 insect cells (baculovirus)
Description: PDE10 biochemical assay (two-step Thompson and Appleman method or SPA). As to conditions: PDE10 inhibition. How it is done:
In short, cAMP is spiked with (^3H)cAMP and incubated with PDE10 and various concentrations of a compound of structure (I). After the appropriate incubation time, the reaction is terminated by heating. The mixture is then subjected to treatment with snake venom phosphatase. The phosphatase hydrolyzes any AMP in the mixture, but leaves unreacted cAMP intact. Thus, by separating cAMP from the mixture and determining its concentration (by radiography), the percent of inhibition can be determined. IC50 values can be calculated by performing the experiment at several concentrations using standard graphical means. A detailed description of the actual technique used for IC50 assays as set forth in following Examples.
The phosphodiesterase (PDE) assay was performed using recombinant human PDE 1A3, 2A3, 3 catalytic region, 4 catalytic region, 5 catalytic region, 7A, 8A, 9A2, 10A1 and 11A1 enzymes expressed in a baculoviral system using Sf9 cells. PDE activity was measured using a modification of the two-step method of Thompson and Appleman described above which was adapted for 96 well plate format. […] The final assay volume was 110 μl with assay buffer (10 mM MgCl2; 40 mM Tris.HCl; pH 7.4). Reactions were initiated with enzyme and incubated with (^3H)-substrate and substance for 20 minutes at 30° C. The reaction was terminated by denaturing the enzyme (heating the reaction to 70° C. for 2 minutes). The reaction was then cooled at 4° C. for 10 minutes before the addition of snake venom (Crotalus atrox, 0.2 mg/ml) for 10 minutes at 30° C., thus allowing non-specific hydrolysis of the tritiated substrate. Separation of the remaining unhydrolysed cyclic nucleotide was achieved by a batch binding of the mixture to activated Dowex (200 μl) anion exchange resin. The anion exchange resin bound the charged nucleotides, leaving only hydrolysed (^3H) substrate in the soluble fraction. The soluble fraction (50 μl) was then added to microscint-20 (200 μl) and counted on a Top Count Plate reader. Radioactivity units were plotted against inhibitor concentration and IC50 values obtained using Graph Pad Prism software.
Alternatively, phosphodiesterase activity was measured by scintillation proximity assay (SPA) with [^3H]-cGMP as substrate. Purified PDE10 was diluted and stored in 25 mM Tris-Cl (pH 8.0)/100 mM NaCl/0.05% Tween 20/50% glycerol/3 mM DTT. Assays contained (final concentrations): 50 mM Tris-Cl (pH 7.5)/8.3 mM MgCl2/1.7 mM EGTA/0.5 mg/ml BSA/5% DMSO and 2 ng PDE10 in a final volume of 0.1 mL. Inhibition was evaluated at 8 concentrations in duplicate. Reactions were initiated by addition of enzyme and were terminated after 20 minutes at 30° C. by the addition of 50 μl of SPA beads containing Zn^++. The mixture was shaken, allowed to settle for 3 hours, and counted in a Wallac plate counter. Results (net cpm) were fitted to a four parameter logistic model using Excel Solver®.

The next test concerns C57BL/6 male mice. In words: Conditioned avoidance response (CAR) model of psychosis. In kind it is in vivo. As to conditions: vs vehicle. The procedure:
Dosing of the compounds is by intraperitoneal (i.p.) injection or oral gavage (p.o.). Intraperitoneal injection is accomplished by restraining the animal, exposing the abdomen and inserting the needle just above the knees on the mouse's right side. Oral gavage is performed by restraining the animal in such a way that its head is tilted back and the esophagus is relatively straight. The gavage needle (20 G×1.5″, Cadence Science) is inserted into the mouth in line with the body and gently pushed along the esophagus and into the stomach. If resistance is encountered the needle is removed and reinserted.
Conditioned avoidance response (CAR) is a behavioral test to evaluate the antipsychotic effect of a test compound. It utilizes a shuttle box (Med Associates, St. Albans, Vt.) with two identical chambers separated by a retractable door. Each chamber is fitted with a metal grid floor that is capable of delivering electric shocks independently. A computer program is used to implement the testing paradigm as well as record the animal's movement between the two chambers through infrared beam sensors. The testing paradigm is as follows. A mouse is placed into one chamber. A light (conditioned stimulus, CS) comes on. Five seconds later, mild electric shocks (0.4 mA; (unconditioned stimulus, US) are delivered to the chamber where the mouse is located (as detected by infrared beams) until the mouse escapes to the adjacent chamber or until 10 sec has elapsed. The US and CS always co-terminate. With randomized inter-trial intervals averaging 15 sec, 30 such CS-US pairing trials are given to each mouse each day. For each trial, an escape response is registered if the mouse crosses to the other chamber after being shocked (i.e., during the 10-sec US period), and an avoidance response is registered if the mouse crosses to the other chamber during the first 5-sec CS only period. The animals are trained in this paradigm for 30-40 days, during which the average percentage of avoidance responses will improve to 80-90%. […] These trained animals are then used for compound testing with the same paradigm.
C57BL/6 male mice were trained in the CAR paradigm to predict and avoid the noxious stimulus (foot shock), reaching a plateau of approximately 25 avoidance responses per 30 trials each day. […] Vehicle treatment and compound treatment were given to the same animals on alternating days, and the effect of compound in reducing avoidance response was analyzed through within-subject comparison (paired t-test).
C57BL/6 male mice were trained in the CAR paradigm to predict and avoid the noxious stimulus (foot shock), reaching a plateau of approximately 25-28 avoidance responses per 30 trials (“training plateau”) each day. […] Vehicle treatment and compound treatment were given to the same animals on alternating days, and the effect of compound in reducing avoidance response was analyzed through within-subject comparison (paired t-test).

Where [1] appears, read: 5 mg/kg oral gavage, 55 minutes prior to testing.
The mark [2] stands for this setting: 10 mg/kg oral gavage, 55 minutes prior to testing.

Each structure is given as a SMILES string. pIC50: −log10 of the molar value.

T1 sequence (Q9Y233 1-779 isoform Q9Y233-1): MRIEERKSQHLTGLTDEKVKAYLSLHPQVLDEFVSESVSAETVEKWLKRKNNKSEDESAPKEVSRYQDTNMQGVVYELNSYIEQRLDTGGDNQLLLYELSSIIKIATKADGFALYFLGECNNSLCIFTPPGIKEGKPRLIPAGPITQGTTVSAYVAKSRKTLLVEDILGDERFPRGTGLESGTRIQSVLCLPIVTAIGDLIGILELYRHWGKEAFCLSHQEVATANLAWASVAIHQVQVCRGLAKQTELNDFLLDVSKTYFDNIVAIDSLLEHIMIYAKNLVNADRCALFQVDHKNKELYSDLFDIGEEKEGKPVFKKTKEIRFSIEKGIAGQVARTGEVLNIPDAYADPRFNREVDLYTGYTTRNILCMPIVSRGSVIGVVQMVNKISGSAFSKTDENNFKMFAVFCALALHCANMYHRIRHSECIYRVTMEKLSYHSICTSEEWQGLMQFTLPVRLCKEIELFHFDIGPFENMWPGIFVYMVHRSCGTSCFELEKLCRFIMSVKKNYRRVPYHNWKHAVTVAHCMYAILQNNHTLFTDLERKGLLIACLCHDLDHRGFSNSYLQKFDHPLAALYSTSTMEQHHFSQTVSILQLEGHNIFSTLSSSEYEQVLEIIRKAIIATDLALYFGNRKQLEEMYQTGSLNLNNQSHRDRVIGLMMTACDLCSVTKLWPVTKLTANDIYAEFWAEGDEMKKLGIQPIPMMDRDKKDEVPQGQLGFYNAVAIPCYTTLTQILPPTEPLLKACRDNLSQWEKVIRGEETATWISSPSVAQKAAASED

In turn, `CCOC(C(=O)c1ccc(-c2cc(OC)c(Cl)c(OC)c2)o1)c1ccc(-c2nnc(C)s2)cc1` (centres unmarked) [Compound 65-10] showed a pIC50 at PDE10 of at least 6.00. The “reduction of number of avoidance responses (CAR)” value (from here on “reduction”) with C57BL/6 male mice (setting [1]) and in the test with C57BL/6 male mice (setting [2]) was “significantly reduces” in each case. Take `COc1cc(-c2ccc(C(=O)C(OC)c3ccc(-c4nnc(C)o4)cc3)o2)cc(OC)c1OC` (centres unmarked) [Compound 36-1, 2-Methoxy-2-(4-(5-Methyl-1,3,4-Oxadiazol-2-Yl)Phenyl)-1-(5-(3,4,5-Trimethoxyphenyl)Furan-2-Yl)Ethanone]: the pIC50 against PDE10 is at least 6.00. The “reduction” value is “a trend that did not reach significance” in the test on C57BL/6 male mice (5 mg/kg oral gavage, 25 minutes prior to testing); “a trend that did not reach significance” in the test with C57BL/6 male mice (10 mg/kg oral gavage, 25 minutes prior to testing); “significantly reduces” in the test with C57BL/6 male mice (15 mg/kg oral gavage, 25 minutes prior to testing).

Compound `COc1cc(-c2ccc(C(=O)C(OC)c3ccc(-c4nnc(C)o4)cc3)o2)cc(OC)c1Cl` (centres unmarked) [Compound 61-1, 1-(5-(4-Chloro-3,5-Dimethoxyphenyl)Furan-2-Yl)-2-Methoxy-2-(4-(5-Methyl-1,3,4-Oxadiazol-2-Yl)Phenyl)Ethanone] showed a pIC50 against PDE10 of at least 6.00. Also, the “reduction” value in the test on C57BL/6 male mice (2 mg/kg oral gavage, 55 minutes prior to testing) was “significantly reduces”; with C57BL/6 male mice (setting [1]), “significantly reduces”; in the test with C57BL/6 male mice (setting [2]) it was “significantly reduces”. With `COc1cc(-c2ccc(C(=O)C(OC)c3ccc(-c4nnc(C)s4)cc3)o2)cc(OC)c1Cl` (centres unmarked) [Compound 49-1, 1-(5-(4-Chloro-3,5-Dimethoxyphenyl)Furan-2-Yl)-2-Methoxy-2-(4-(5-Methyl-1,3,4-Thiadiazol-2-Yl)Phenyl)Ethanone], the pIC50 on PDE10 was at least 6.00. The “reduction” value in the test on C57BL/6 male mice (setting [2]) is “significantly reduces”. For `COc1cc(-c2csc(C(=O)C(OC)c3ccc(-n4cccn4)cc3)n2)cc(OC)c1Br` (centres unmarked) [Compound 3-1, 2-(4-(1H-Pyrazol-1-Yl)Phenyl)-1-(4-(4-Bromo-3,5-Dimethoxyphenyl)Thiazol-2-Yl)-2-Methoxyethanone], the pIC50 against PDE10 is at least 6.00. The same measure, in the same setting: for `COc1cc(-c2cn(C)c(C(=O)C(OC)c3ccc(N4CCOCC4)cc3)n2)cc(OC)c1Br` (centres unmarked) [Compound 4-1, 1-(4-(4-Bromo-3,5-Dimethoxyphenyl)-1-Methyl-1H-Imidazol-2-Yl)-2-Methoxy-2-(4-Morpholinophenyl)Ethanone] the value was at least 6.00. In turn, `COc1cc(-c2ccc(C(=O)C(OC)c3ccc(-n4cncn4)cc3)o2)cc(OC)c1Br` (centres unmarked) [Compound 32-1, 2-(4-(1H-1,2,4-Triazol-1-Yl)Phenyl)-1-(5-(4-Bromo-3,5-Dimethoxyphenyl)Furan-2-Yl)-2-Methoxyethanone] showed a pIC50 at PDE10 of at least 6.00. Regarding `COc1cc(-c2ccc(C(=O)C(OC)c3ccc(N4CCCCC4)nc3)o2)cc(OC)c1Br` (centres unmarked) [Compound 23-1, 1-(5-(4-Bromo-3,5-Dimethoxyphenyl)Furan-2-Yl)-2-Methoxy-2-(6-(Piperidin-1-Yl)Pyridin-3-Yl)Ethanone], the negative-log IC50 (pIC50) against PDE10 was at least 6.00. On to `COc1cc(OC)cc(-c2ccc(C(=O)C(OC)c3ccc(N4CCOCC4)cc3)o2)c1` (centres unmarked) [Compound 27-1, 1-(5-(3,5-Dimethoxyphenyl)Furan-2-Yl)-2-Methoxy-2-(4-Morpholinophenyl)Ethanone], for which, at PDE10, the pIC50 is at least 6.00. Same read-out and setting: the same measure for `COc1cc(-c2cnc(C(=O)C(OC)c3ccc(N4CCOCC4)cc3)o2)cc(OC)c1Br` (centres unmarked) [Compound 56-1, 1-(5-(4-Bromo-3,5-Dimethoxyphenyl)Oxazol-2-Yl)-2-Methoxy-2-(4-Morpholinophenyl)Ethanone]: at least 6.00. On PDE10, `COc1cc(-c2coc(C(=O)C(OC)c3ccc(OC(C)C)cc3)n2)cc(OC)c1Br` (centres unmarked) [Compound 8-1, 1-(4-(4-Bromo-3,5-Dimethoxyphenyl)Oxazol-2-Yl)-2-(4-Isopropoxyphenyl)-2-Methoxyethanone] showed a pIC50 of at least 6.00.
